14 compounds from PubChem BioAssay (NCI) can be followed below.

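A five-concentration, 48-hour dose response in 96-well plates underlies each endpoint, interpolated linearly between surrounding concentrations. GI50 = concentration required for 50% inhibition of growth. At the TGI there is no net growth.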

Some test systems named below: COLO 205 colon; UO-31 renal; NCI-H23 lung; SK-OV-3 ovarian; HCT-15 colon; HCC-2998 colon; NCI/ADR-RES ovarian; OVCAR-3 ovarian; SR leukemia; SNB-75 CNS.
Holding throughout (test): NCI-60 cell line screen, 48 h

As for `COC1CC(CC2CCC(C)C(C(C)C(=O)O)O2)OC2(OC(C)(C3CCC(C)(C4OC(C5OC(O)(CO)C(C)CC5C)CC4C)O3)CC2C)C1C` (configuration not stated), the TGI in the assay with COLO 205 colon came out at 2.67 µM; in the assay on UO-31 renal, 33.8 µM; with NCI-H23 lung, 8.76 µM; with SK-OV-3 ovarian, 46.3 µM; in the assay with HCT-15 colon, 29.1 µM; in the assay with HCC-2998 colon, 11.5 µM. For the same compound, the TGI is above 66.1 µM in the assay on NCI/ADR-RES ovarian, 14 µM in the assay on OVCAR-3 ovarian, 1.54 µM with SR leukemia and 8.7 µM in the assay on SNB-75 CNS. Further, the GI50 in the assay on NCI/ADR-RES ovarian is 2.58 µM.
As to `O=C1CC(c2ccc(Cl)cc2)C2(C(=O)NC(=O)NC2=O)C(c2ccc(Cl)cc2)C1` (configuration not stated), the TGI in the assay with COLO 205 colon was 65.1 µM; in the assay with UO-31 renal it was above 75 µM; in the assay with NCI-H23 lung it was above 75 µM; in the assay with HCT-15 colon, above 75 µM; in the assay on HCC-2998 colon it was above 75 µM; with NCI/ADR-RES ovarian it was above 75 µM. Further, the TGI with OVCAR-3 ovarian and in the assay on SNB-75 CNS was above 75 µM each time.
In the case of `CC(C)C1OC(=O)/C=C/C=C/C=C/C=C/C=C/CC(O)C(C)C(O)CC(O)CC(O)CC(O)CC(O)CC(O)CC(O)/C=C/C1C` (configuration not stated), the TGI in the assay on UO-31 renal, in the assay with NCI-H23 lung, in the assay with SK-OV-3 ovarian, in the assay on HCT-15 colon, in the assay with HCC-2998 colon and in the assay with NCI/ADR-RES ovarian was above 100 µM throughout. The TGI in the assay with OVCAR-3 ovarian, with SR leukemia and in the assay with SNB-75 CNS was above 100 µM each time.
Regarding `NC(=S)N1N=C(c2ccccc2O)CC1c1ccccc1` (configuration not stated), the TGI in the assay on COLO 205 colon is 26.5 µM; with UO-31 renal it was 53.6 µM; in the assay with NCI-H23 lung it was 61.3 µM; in the assay on SK-OV-3 ovarian, 49.8 µM; in the assay on HCT-15 colon, 39 µM; in the assay with HCC-2998 colon it was 27.3 µM. Further, the TGI in the assay with NCI/ADR-RES ovarian is 50.6 µM; in the assay with OVCAR-3 ovarian, 31.2 µM; in the assay on SNB-75 CNS, 52.9 µM.
As to `C1=CC(=[N+]2N=C(c3ccccc3)CC2c2ccccc2)C=CC1=C1SC(c2ccccc2)(c2ccccc2)c2ccccc21` (configuration not stated), the TGI in the assay on UO-31 renal, in the assay on NCI-H23 lung, with SK-OV-3 ovarian, in the assay on HCT-15 colon, with HCC-2998 colon and in the assay on NCI/ADR-RES ovarian was above 100 µM throughout. The TGI in the assay on OVCAR-3 ovarian and in the assay on SR leukemia was above 100 µM each time.
Take `CCOC(=O)C1=COC(C)(c2ccccc2)CC1=O` (configuration not stated): the TGI in the assay on COLO 205 colon, with UO-31 renal, in the assay on NCI-H23 lung, in the assay with SK-OV-3 ovarian, in the assay on HCT-15 colon and in the assay on HCC-2998 colon was above 100 µM throughout. Also, the TGI in the assay on NCI/ADR-RES ovarian, in the assay on OVCAR-3 ovarian and in the assay on SNB-75 CNS was above 100 µM throughout.
In the case of `O=C(Cn1c2ccc(Br)cc2c2nc3ccccc3nc21)N/N=C/c1ccccc1`, the TGI with COLO 205 colon, in the assay on UO-31 renal, in the assay on NCI-H23 lung, in the assay with SK-OV-3 ovarian, with NCI/ADR-RES ovarian and in the assay on OVCAR-3 ovarian was above 100 µM each time. For the same compound, the TGI in the assay on SR leukemia and in the assay with SNB-75 CNS was above 100 µM in each case.
With `CC(C)(C)[Si](C)(C)OCC1OC(n2cnc3c(N)ncnc32)CC1OS(C)(=O)=O` (configuration not stated), the TGI in the assay on COLO 205 colon, in the assay on UO-31 renal, with NCI-H23 lung, in the assay with SK-OV-3 ovarian, in the assay with HCT-15 colon and in the assay on NCI/ADR-RES ovarian was above 100 µM each time. The TGI in the assay on OVCAR-3 ovarian and in the assay on SR leukemia was above 100 µM each time.
In the case of `Nc1cc(-c2ccc(Cl)cc2)nn1-c1nc2ccccc2nc1-c1ccccc1`, the TGI in the assay with COLO 205 colon, in the assay on SK-OV-3 ovarian, with HCT-15 colon, in the assay on HCC-2998 colon, in the assay on NCI/ADR-RES ovarian and in the assay on OVCAR-3 ovarian was above 100 µM in each case. The TGI in the assay on SR leukemia was above 100 µM; with SNB-75 CNS it was 64.9 µM.
In the case of `CCO/C(O)=C(/C(=N)N1CCCC1)C(=O)Nc1ccc(F)cc1`, the TGI with COLO 205 colon is above 100 µM; in the assay with NCI-H23 lung, 59.4 µM; in the assay on SK-OV-3 ovarian, above 100 µM; in the assay with HCT-15 colon, above 100 µM; with HCC-2998 colon, above 100 µM; in the assay on NCI/ADR-RES ovarian, above 100 µM. For the same compound, the TGI in the assay with OVCAR-3 ovarian and with SNB-75 CNS was above 100 µM in each case.
For the compound `Cc1nc2ncn3c(c-2c1Cc1ccccc1)NC=C(O)N3`, the TGI with COLO 205 colon, in the assay on UO-31 renal, in the assay with NCI-H23 lung, in the assay with SK-OV-3 ovarian, with HCT-15 colon and in the assay with HCC-2998 colon was above 100 µM each time. Moreover, the TGI in the assay on NCI/ADR-RES ovarian was above 100 µM; with OVCAR-3 ovarian, above 100 µM; in the assay with SNB-75 CNS, 67.8 µM.
Consider `O=[N+]([O-])c1ccc2c(c1)nc(Cc1ccc(Cl)cc1)n2C[C@@H]1CCCN2CCCCC12` (some centres not stated), for which the TGI with COLO 205 colon was 29.2 µM; in the assay on NCI-H23 lung, 34.3 µM; with SK-OV-3 ovarian, 43.5 µM; in the assay on HCT-15 colon, 37.8 µM; in the assay with HCC-2998 colon, 18.8 µM; in the assay with NCI/ADR-RES ovarian, 30.2 µM. For the same compound, the TGI in the assay on OVCAR-3 ovarian is 30.8 µM; with SR leukemia, above 100 µM; in the assay on SNB-75 CNS, 28.3 µM.
With `COc1ccc(C2c3cc4c(cc3OC(O)(CO)C2C(=O)O)OCO4)cc1` (configuration not stated) (tested in a mixture with another compound), the TGI in the assay with COLO 205 colon is above 100 µM; in the assay with UO-31 renal it was above 100 µM; in the assay with NCI-H23 lung, 50.8 µM; in the assay with SK-OV-3 ovarian it was 98.5 µM; in the assay on HCT-15 colon, 35.6 µM; in the assay on HCC-2998 colon, 38.2 µM. In addition, the TGI was determined as 54.4 µM in the assay on OVCAR-3 ovarian, 56.2 µM with SR leukemia and 78.3 µM in the assay on SNB-75 CNS.
In the case of `Nc1ccc(-c2nc3cc(F)ccc3s2)cc1CO`, the TGI was above 100 µM with COLO 205 colon; above 100 µM with UO-31 renal; 42.1 µM in the assay with NCI-H23 lung; 49.3 µM with SK-OV-3 ovarian; above 100 µM in the assay with HCT-15 colon; 6.17 µM with HCC-2998 colon. The results for the TGI in the assay on NCI/ADR-RES ovarian, in the assay with OVCAR-3 ovarian and in the assay on SNB-75 CNS were above 100 µM, above 100 µM and 36.8 µM, respectively.
